This note sets out measurements from patent US20040034107A1, “Ubiquinone Qn for the treatment of pain” (MSE Pharmazeutika GmbH, priority 1999, published 2004).

Molecules are shown by their SMILES.

Experiment [1] can be described thus: treatment of migraine pain with Q-10. In kind it is in vivo. Here is the method: The substances to be used according to the invention can be preferably employed for the treatment of pain which is caused by migraine, dialysis, herpes zoster, cancer, diabetic neuropathy, or generalized pain conditions. The treatment can be done by administration in oral, parenteral, local, inhalative or intranasal form. The kind of administration must be adapted to the pain condition to be treated. […] Good results were achieved already with doses of about 20 mg.
Due to the low dose which is already effective for treating migraine pain, the ubiquinone Qn or its precursors are preferably used in the form of a spray, preferably a nasal spray, according to the invention.

A short description of experiment [2]: local treatment of herpes zoster pain. The class given is in vivo. As to conditions: local application in the form of creams or gels. An excerpt: In the case of herpes zoster, even the local application of Q-10 in the form of creams or gels has even proven useful. It is critical that sufficient amounts of the ubiquinones or ubiquinone precursors arrive at the place in which the pain caused by disturbances of the signal transmission of the nerve system has its origin.

For the compound `COC1=C(OC)C(=O)C(C/C=C(\C)CC/C=C(\C)CC/C=C(\C)CC/C=C(\C)CC/C=C(\C)CC/C=C(\C)CC/C=C(\C)CC/C=C(\C)CC/C=C(\C)CCC=C(C)C)=C(C)C1=O` [Q-10, 2,3-dimethoxy-5-methyl-6-decaprenyl-1,4-benzoquinone], in experiment [1] (oral administration, high doses), the treatment of migraine result is “only with very limited success”. The “elimination of migraine pain” value in experiment [1] (oral and nasal sprays, small amounts) is “fast and effective elimination of migraine pain”. For the same compound, the “results in migraine pain” value in experiment [1] (sprays, doses of about 20 mg) is “Good results”. The “treatment of herpes zoster pain” value in experiment [2] is “proven useful”.
